What follows are compounds tested against Histamine H4 receptor (Homo sapiens, UniProt Q9H3N8) (assay: Inhibition of histamine H4 receptor (unknown origin)).

| Ki [nM] | SMILES |
| --- | --- |
| 158 | CN[C@H]1CCN(c2nc(N)nc3c2CCC3)C1 |
| 355 | CN[C@H]1CCN(c2nc(N)nc(C)c2C)C1 |
| 1 | CN[C@H]1CCN(c2nc(N)nc3c2oc2ccc(C(C)(F)F)cc23)C1 |
| 3.39 | CN[C@H]1CCN(c2nc(N)nc3c2oc2ccccc23)C1 |
